Source: publication PMC10257182, “Discovery of senolytics using machine learning” (Nature Communications, 2023)
Like-named read-outs stand apart in the source and are kept apart here.

How the values were obtained:
Type in all cases: cell-based, human
[1] = system: non-senescent control A549 cells; experiment: Nuclei count senolytic assay, TIS model, non-senescent control cells; conditions: Homo sapiens, A549, Control cells, mean, read-out: Mean % Cell Survival; for viability at 10 µM: log (dose) [M] -5; for viability at 4.68 µM: log (dose) [M] -5.33; for viability at 2.19 µM: log (dose) [M] -5.66; for viability at 1 µM: log (dose) [M] -6; for viability at 0.468 µM: log (dose) [M] -6.33; for viability at 0.219 µM: log (dose) [M] -6.66; for viability at 0.1 µM: log (dose) [M] -7; for viability at 0.0468 µM: log (dose) [M] -7.33; for viability at 0.0219 µM: log (dose) [M] -7.66; for viability at 0.01 µM: log (dose) [M] -8
Method in brief: (§1)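 A549 cells made senescent with 100 μM etoposide for 48 h then 3 days in normal media; non-senescent A549 as control. Cells were exposed for 72 h to a 10-point […] range (10 μM–10 nM) in triplicate, then fixed, Hoechst-stained and imaged for nuclei count.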

[2] = system: non-senescent control IMR90 ER:RAS cells; experiment: Nuclei count (Hoechst, high content imaging) senolytic assay, OIS model, non-senescent control cells; conditions: Homo sapiens; for viability at 2.188 µM: log (dose) [M] -5.66, 72 h
Method in brief: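 Compared non-senescent and senescent IMR90 ER:RAS cultures (senescence induced with 4-OHT at 100 nM final); cells seeded 24 h before dosing, then exposed 72 h to compounds, 10-point […] range 10 μM–10 nM, triplicate. Fixed, Hoechst-stained, nuclei counted by high-content imaging; drop versus untreated reflects cell death.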

[3] = system: senescent A549 cells (etoposide-induced); experiment: Nuclei count senolytic assay, therapy-induced senescence (TIS) model, senescent cells; conditions: Homo sapiens, A549, Senescent cells, mean, read-out: Mean % Cell Survival; for viability at 10 µM: log (dose) [M] -5; for viability at 4.68 µM: log (dose) [M] -5.33; for viability at 2.19 µM: log (dose) [M] -5.66; for viability at 1 µM: log (dose) [M] -6; for viability at 0.468 µM: log (dose) [M] -6.33; for viability at 0.219 µM: log (dose) [M] -6.66; for viability at 0.1 µM: log (dose) [M] -7; for viability at 0.0468 µM: log (dose) [M] -7.33; for viability at 0.0219 µM: log (dose) [M] -7.66; for viability at 0.01 µM: log (dose) [M] -8
Method in brief: as §1

[4] = IMR-90, 72 h, Control, log (dose) [M] -5, 72 h, mean n=3 (Fig 3C), read-out: Mean % Cell Survival
[5] = IMR-90, 72 h, Control, log (dose) [M] -5.33, 72 h, mean n=3 (Fig 3C), read-out: Mean % Cell Survival
[6] = IMR-90, 72 h, Control, mean n=3 (Fig 3C), read-out: Mean % Cell Survival
[7] = IMR-90, 72 h, Control, log (dose) [M] -6, 72 h, mean n=3 (Fig 3C), read-out: Mean % Cell Survival
[8] = IMR-90, 72 h, Control, log (dose) [M] -6.33, 72 h, mean n=3 (Fig 3C), read-out: Mean % Cell Survival
[9] = IMR-90, 72 h, Control, log (dose) [M] -6.66, 72 h, mean n=3 (Fig 3C), read-out: Mean % Cell Survival
[10] = IMR-90, 72 h, Control, log (dose) [M] -7, 72 h, mean n=3 (Fig 3C), read-out: Mean % Cell Survival
[11] = IMR-90, 72 h, Control, log (dose) [M] -7.33, 72 h, mean n=3 (Fig 3C), read-out: Mean % Cell Survival
[12] = IMR-90, 72 h, Control, log (dose) [M] -7.66, 72 h, mean n=3 (Fig 3C), read-out: Mean % Cell Survival
[13] = IMR-90, 72 h, Control, log (dose) [M] -8, 72 h, mean n=3 (Fig 3C), read-out: Mean % Cell Survival
[14] = IMR-90, Control cells, log (dose) [M] -6.66, individual replicates, SUP FIG 4C, read-out: % Cell Survival
[15] = IMR-90, Control, log (dose) [M] -5, read-out: % Cell Survival
[16] = IMR-90, Control, log (dose) [M] -5.33, read-out: % Cell Survival
[17] = IMR-90, Control, log (dose) [M] -7, read-out: % Cell Survival
[18] = IMR-90, Control, log (dose) [M] -7.33, read-out: % Cell Survival
[19] = IMR-90, Control, log (dose) [M] -7.66, read-out: % Cell Survival
[20] = IMR-90, Control, log (dose) [M] -8, read-out: % Cell Survival

Structure (SMILES): Cc1cnc(C(=O)N[C@H]2CCCCC/C=C\[C@@H]3C[C@@]3(C(=O)NS(=O)(=O)C3CC3)NC(=O)[C@@H]3C[C@@H](Oc4nc5ccccc5c5ccccc45)CN3C2=O)cn1 [Paritaprevir, paritaprevir, reference compound]
- viability at 10 µM [1]: 96.8%
- viability at 4.68 µM [1]: 93%
- viability at 2.19 µM [1]: 96%
- viability at 1 µM [1]: 95.4%
- viability at 0.468 µM [1]: 98.6%
- viability at 0.219 µM [1]: 97.7%
- viability at 0.1 µM [1]: 95.4%
- viability at 0.0468 µM [1]: 95.7%
- viability at 0.0219 µM [1]: 95.5%
- viability at 0.01 µM [1]: 101%
- viability at 10 µM [2, 4]: 95%
- viability at 4.677 µM [2, 5]: 90.1%
- viability at 2.188 µM [2, 6]: 102%
- viability at 1 µM [2, 7]: 78.8%
- viability at 0.4677 µM [2, 8]: 87.9%
- viability at 0.2188 µM [2, 9]: 82.7%
- viability at 0.1 µM [2, 10]: 81.5%
- viability at 0.04677 µM [2, 11]: 87.1%
- viability at 0.02188 µM [2, 12]: 88.3%
- viability at 0.01 µM [2, 13]: 101%
- viability at 10 µM ([2]; IMR-90, Control cells, log (dose) [M] -5, individual replicates, SUP FIG 4C, read-out: % Cell Survival): 93.1%
- viability at 4.677 µM ([2]; IMR-90, Control cells, log (dose) [M] -5.33, individual replicates, SUP FIG 4C, read-out: % Cell Survival): 86.6%
- viability at 0.4677 µM ([2]; IMR-90, Control cells, log (dose) [M] -6.33, individual replicates, SUP FIG 4C, read-out: % Cell Survival): 89.5%
- viability at 0.2188 µM [2, 14]: 83.1%
- viability at 0.1 µM ([2]; IMR-90, Control cells, log (dose) [M] -7, individual replicates, SUP FIG 4C, read-out: % Cell Survival): 73.5%
- viability at 0.04677 µM ([2]; IMR-90, Control cells, log (dose) [M] -7.33, individual replicates, SUP FIG 4C, read-out: % Cell Survival): 83%
- viability at 0.02188 µM ([2]; IMR-90, Control cells, log (dose) [M] -7.66, individual replicates, SUP FIG 4C, read-out: % Cell Survival): 88%
- viability at 0.01 µM ([2]; IMR-90, Control cells, log (dose) [M] -8, individual replicates, SUP FIG 4C, read-out: % Cell Survival): 102%
- viability at 10 µM [2, 15]: 96%
- viability at 4.68 µM [2, 16]: 96.2%
- viability at 2.19 µM ([2]; IMR-90, Control, log (dose) [M] -5.66, read-out: % Cell Survival): 99.1%
- viability at 1 µM ([2]; IMR-90, Control, log (dose) [M] -6, read-out: % Cell Survival): 96.6%
- viability at 0.468 µM ([2]; IMR-90, Control, log (dose) [M] -6.33, read-out: % Cell Survival): 97.8%
- viability at 0.219 µM ([2]; IMR-90, Control, log (dose) [M] -6.66, read-out: % Cell Survival): 99.6%
- viability at 0.1 µM [2, 17]: 94.1%
- viability at 0.04677 µM [2, 18]: 94.2%
- viability at 0.0219 µM [2, 19]: 97%
- viability at 0.01 µM [2, 20]: 101%
- viability at 10 µM [3]: 113%
- viability at 4.68 µM [3]: 107%
- viability at 2.19 µM [3]: 112%
- viability at 1 µM [3]: 108%
- viability at 0.468 µM [3]: 112%
- viability at 0.219 µM [3]: 104%
- viability at 0.1 µM [3]: 112%
- viability at 0.0468 µM [3]: 115%
- viability at 0.0219 µM [3]: 103%
- viability at 0.01 µM [3]: 103%

Structure (SMILES): COc1cc(/C=C/C(=O)O[C@H]2CC[C@]34C[C@]35CC[C@]3(C)[C@@H]([C@H](C)CCC=C(C)C)CC[C@@]3(C)[C@@H]5CC[C@H]4C2(C)C)ccc1O [Gamma oryzanol, gamma oryzanol]
- viability at 10 µM [1]: 37.8%
- viability at 4.68 µM [1]: 35%
- viability at 2.19 µM [1]: 87.4%
- viability at 1 µM [1]: 76.1%
- viability at 0.468 µM [1]: 75.3%
- viability at 0.219 µM [1]: 109%
- viability at 0.1 µM [1]: 105%
- viability at 0.0468 µM [1]: 103%
- viability at 0.0219 µM [1]: 106%
- viability at 0.01 µM [1]: 103%
- viability at 10 µM [2, 4]: 87.1%
- viability at 4.677 µM [2, 5]: 92.9%
- viability at 2.188 µM [2, 6]: 89.6%
- viability at 1 µM [2, 7]: 86.2%
- viability at 0.4677 µM [2, 8]: 98.4%
- viability at 0.2188 µM [2, 9]: 99.1%
- viability at 0.1 µM [2, 10]: 109%
- viability at 0.04677 µM [2, 11]: 133%
- viability at 0.02188 µM [2, 12]: 118%
- viability at 0.01 µM [2, 13]: 115%
- viability at 0.2188 µM [2, 14]: 93.2%
- viability at 10 µM [2, 15]: 113%
- viability at 4.68 µM [2, 16]: 105%
- viability at 0.1 µM [2, 17]: 103%
- viability at 0.04677 µM [2, 18]: 103%
- viability at 0.0219 µM [2, 19]: 104%
- viability at 0.01 µM [2, 20]: 100%
- viability at 10 µM [3]: 96.8%
- viability at 4.68 µM [3]: 100%
- viability at 2.19 µM [3]: 105%
- viability at 1 µM [3]: 106%
- viability at 0.468 µM [3]: 107%
- viability at 0.219 µM [3]: 105%
- viability at 0.1 µM [3]: 114%
- viability at 0.0468 µM [3]: 126%
- viability at 0.0219 µM [3]: 61.5%
- viability at 0.01 µM [3]: 76%
